Source: ChEMBL document CHEMBL1151143, “Repin, a sesquiterpene lactone from Acroptilon repens possessing exceptional biological activity” (1990)
Activity calls are given as the source filed them. No cut-off for these calls is given here.

How the values were obtained:
[1] = tested on: Neuron; assay: Inhibition of NGF-stimulated extension of neural processes in chick embryo neurons at 300 nM; format: functional, cell-based; details: Gallus gallus
[2] = tested on: Neuron; assay: Inhibition of NGF-stimulated extension of neural processes in chick embryo neurons at 80 nM; format: functional; details: Gallus gallus

| Structure (SMILES) | Activity [1] | inhibition at 0.08 µM [2] |
| --- | --- | --- |
| C=C1C(=O)O[C@H]2[C@H]1[C@@H](OC(=O)[C@@]1(C)CO1)CC(=C)[C@@H]1C[C@H](O)[C@]3(CO3)[C@H]21 | Active | – |
| C=C1C(=O)O[C@H]2[C@H]1[C@@H](OC(=O)[C@]1(C)CO1)CC(=C)[C@@H]1C[C@H](O)[C@]3(CO3)[C@H]21 [REPIN] | – | 50% |
